The subject of test [1] is MCF7. Put plainly: Antiproliferative activity against human MCF7 cells assessed as cell growth at 10 uM incubated for 48 hrs by sulforhodamine B assay relative to control. It is filed as functional. The conditions noted are these: read-out: Activity.
The next test relates to SR. Kind of test: Antiproliferative activity against human SR cells assessed as cell growth at 10 uM incubated for 48 hrs by sulforhodamine B assay relative to control. It is filed as functional. The settings on record: read-out: Activity. A general note: The SRB assay estimates cell density from bound dye.
Another test concerns K562. Put plainly: Antiproliferative activity against human K562 cells assessed as cell growth at 10 uM incubated for 48 hrs by sulforhodamine B assay relative to control. The test is classed as functional. The conditions noted are these: read-out: Activity.
The next test relates to PC-3. Put plainly: Antiproliferative activity against human PC-3 cells assessed as cell growth at 10 uM incubated for 48 hrs by sulforhodamine B assay relative to control. The test is classed as functional. The conditions noted are these: read-out: Activity.
For another test, the system named is NCI-H226. Put plainly: Antiproliferative activity against human NCI-H226 cells assessed as cell growth at 10 uM incubated for 48 hrs by sulforhodamine B assay relative to control. The test is classed as functional. The conditions noted are these: read-out: Activity.
The next test relates to CAKI-1. Put plainly: Antiproliferative activity against human CAKI-1 cells assessed as cell growth at 10 uM incubated for 48 hrs by sulforhodamine B assay relative to control. It is filed as functional. The settings on record: read-out: Activity.
A further test relates to UACC-257. Put plainly: Antiproliferative activity against human UACC-257 cells assessed as cell growth at 10 uM incubated for 48 hrs by sulforhodamine B assay relative to control. It is filed as functional. The conditions noted are these: read-out: Activity.
For a further test, the system named is NCI-H522. Put plainly: Antiproliferative activity against human NCI-H522 cells assessed as cell growth at 10 uM incubated for 48 hrs by sulforhodamine B assay relative to control. The test is classed as functional. The settings on record: read-out: Activity.
A further test deals with 786-0. Kind of test: Antiproliferative activity against human 786-0 cells assessed as cell growth at 10 uM incubated for 48 hrs by sulforhodamine B assay relative to control. The settings on record: read-out: Activity. The test is classed as functional.
The test system of another test is HL-60. Put plainly: Antiproliferative activity against human HL-60 cells assessed as cell growth at 10 uM incubated for 48 hrs by sulforhodamine B assay relative to control. It is filed as functional. The conditions noted are these: read-out: Activity.
The next test relates to UO-31. Kind of test: Antiproliferative activity against human UO-31 cells assessed as cell growth at 10 uM incubated for 48 hrs by sulforhodamine B assay relative to control. The conditions noted are these: read-out: Activity. The test is classed as functional.
The next test relates to MOLT-4. Kind of test: Antiproliferative activity against human MOLT-4 cells assessed as cell growth at 10 uM incubated for 48 hrs by sulforhodamine B assay relative to control. It is filed as functional. The conditions noted are these: read-out: Activity.
The next test relates to CCRF-CEM. Put plainly: Antiproliferative activity against human CCRF-CEM cells assessed as cell growth at 10 uM incubated for 48 hrs by sulforhodamine B assay relative to control. It is filed as functional. The settings on record: read-out: Activity.
For test [2], the system named is MCF7. Kind of test: Antiproliferative activity against human MCF7 cells assessed as reduction in cell growth at 10 to 100 uM incubated for 4 hrs by MTS assay. It is filed as functional, cell-based. The conditions noted are these: dose 10-100 µM. In general terms: Tetrazolium assays rely on reduction of a dye to a coloured formazan, in cell work by metabolically active cells.

Another test has as its system UACC-62. Put plainly: Antiproliferative activity against human UACC-62 cells assessed as cell growth at 10 uM incubated for 48 hrs by sulforhodamine B assay relative to control. It is filed as functional. The settings on record: read-out: Activity.
Another test concerns MDA-MB-231. Kind of test: Antiproliferative activity against human MDA-MB-231 cells assessed as cell growth at 10 uM incubated for 48 hrs by sulforhodamine B assay relative to control. It is filed as functional. The settings on record: read-out: Activity.
A further test concerns SNB-75. Put plainly: Antiproliferative activity against human SNB-75 cells assessed as cell growth at 10 uM incubated for 48 hrs by sulforhodamine B assay relative to control. It is filed as functional. The conditions noted are these: read-out: Activity.
The next test relates to LA-N-5. Put plainly: Antiproliferative activity against human LA-N-5 cells assessed as reduction in cell growth at 10 to 100 uM incubated for 4 hrs by MTS assay. The test is classed as functional, cell-based. The settings on record: dose 10-100 µM.
Another test deals with T47D. Put plainly: Antiproliferative activity against human T47D cells assessed as cell growth at 10 uM incubated for 48 hrs by sulforhodamine B assay relative to control. The test is classed as functional. The conditions noted are these: read-out: Activity.
Another test concerns RPMI-8226. Put plainly: Antiproliferative activity against human RPMI-8226 cells assessed as cell growth at 10 uM incubated for 48 hrs by sulforhodamine B assay relative to control. The test is classed as functional. The settings on record: read-out: Activity.

Active and inactive are the calls of the source. No cut-off for these calls is given here.

For `CC(=O)c1c(C)n(-c2ccccc2)c2c1c(-c1ccccc1)nc1ccccc12`, the growth at 10 µM with MCF7 [1] was 89.6%; in the test on SR it was 79.5%; in the test with K562, 76.8%; in the test on PC-3, 85.7%; in the test on NCI-H226 it was 84.2%; in the test with CAKI-1, 72.3%. Besides, the growth at 10 µM in the test with UACC-257 turned out to be 98.1%; in the test with NCI-H522, 77%; in the test with 786-0 it was 88.5%; in the test with HL-60, 90.7%; with UO-31, 59.6%; in the test on MOLT-4, 77.6%. The growth at 10 µM with CCRF-CEM stood at 95.9%; with UACC-62 it was 70.4%; in the test with MDA-MB-231, 76.3%; with SNB-75 it was 75.1%; in the test on T47D, 102%; with RPMI-8226 it was 87.5%. The result in the test with MCF7 [2] and in the test with LA-N-5 was Active.

These data come from ChEMBL document CHEMBL5620394, “Synthesis of new antiproliferative 1,3,4-substituted-pyrrolo[3,2-c]quinoline derivatives, biological and in silico insights” (Eur J Med Chem, 2023).
